The values below are quoted from earlier work in patent publication US10988420B2, “Nanoparticles of layered double hydroxides containing non-polar compounds of plant origin, and method for the separation and selective release of said compounds” (UNIVERSIDAD DE GUADALAJARA, priority 2015, dated 2021).

For the data set the following is noted: lycopene not encapsulated; prior art (Meléndez-Martinez 2004).

Take `CC(C)=CCC/C(C)=C/C=C/C(C)=C/C=C/C(C)=C/C=C/C=C(C)/C=C/C=C(C)/C=C/C=C(\C)CCC=C(C)C` [lycopene]: the “temperature at which lycopene is decomposed” value was 100-150 °C.
